# Measured values reported in paper PMC8566089 (Bioorganic Chemistry, 2021).
# What was measured:
# [1] = test system: A431 (squamous skin) cancer cell line; assay: MTT antiproliferative assay, A431; format: cell-based; details: for IC50: Homo sapiens, A-431, 72 h, read-out: IC50 ± SE, A431; for SI (selectivity index), A431: IC50 of RPE1 relative to that of A431
# [2] = test system: MCF7 (breast) cancer cell line; assay: MTT antiproliferative assay, MCF7; format: cell-based; details: for IC50: Homo sapiens, MCF7, 72 h, read-out: IC50 ± SE, MCF7; for SI (selectivity index), MCF7: IC50 of RPE1 relative to that of MCF7
# [3] = test system: HCT116 (colon) cancer cell line; assay: MTT antiproliferative assay, HCT116; format: cell-based; details: for IC50: Homo sapiens, HCT-116, 72 h, read-out: IC50 ± SE, HCT116; for SI (selectivity index), HCT116: IC50 of RPE1 relative to that of HCT116
# [4] = test system: RPE1 (normal human immortalized retinal pigment epithelial cell line); assay: MTT assay against normal RPE1 cells; format: cell-based; details: RPE-1, read-out: IC50 ± SE, RPE1
# VEGFR-2 [5] = biological target: T1, VEGFR-2 (Homo sapiens, UniProt P35968); assay: VEGFR-2 Western blot in MCF7; format: cell-based; details: for VEGFR2 MCF7 % Inhibition: Western blot at MTT-IC50; for VEGFR2 MCF7 RQ (relative quantification): Western blot at MTT-IC50, control RQ 3.725
# T1 sequence (P35968 20-1356): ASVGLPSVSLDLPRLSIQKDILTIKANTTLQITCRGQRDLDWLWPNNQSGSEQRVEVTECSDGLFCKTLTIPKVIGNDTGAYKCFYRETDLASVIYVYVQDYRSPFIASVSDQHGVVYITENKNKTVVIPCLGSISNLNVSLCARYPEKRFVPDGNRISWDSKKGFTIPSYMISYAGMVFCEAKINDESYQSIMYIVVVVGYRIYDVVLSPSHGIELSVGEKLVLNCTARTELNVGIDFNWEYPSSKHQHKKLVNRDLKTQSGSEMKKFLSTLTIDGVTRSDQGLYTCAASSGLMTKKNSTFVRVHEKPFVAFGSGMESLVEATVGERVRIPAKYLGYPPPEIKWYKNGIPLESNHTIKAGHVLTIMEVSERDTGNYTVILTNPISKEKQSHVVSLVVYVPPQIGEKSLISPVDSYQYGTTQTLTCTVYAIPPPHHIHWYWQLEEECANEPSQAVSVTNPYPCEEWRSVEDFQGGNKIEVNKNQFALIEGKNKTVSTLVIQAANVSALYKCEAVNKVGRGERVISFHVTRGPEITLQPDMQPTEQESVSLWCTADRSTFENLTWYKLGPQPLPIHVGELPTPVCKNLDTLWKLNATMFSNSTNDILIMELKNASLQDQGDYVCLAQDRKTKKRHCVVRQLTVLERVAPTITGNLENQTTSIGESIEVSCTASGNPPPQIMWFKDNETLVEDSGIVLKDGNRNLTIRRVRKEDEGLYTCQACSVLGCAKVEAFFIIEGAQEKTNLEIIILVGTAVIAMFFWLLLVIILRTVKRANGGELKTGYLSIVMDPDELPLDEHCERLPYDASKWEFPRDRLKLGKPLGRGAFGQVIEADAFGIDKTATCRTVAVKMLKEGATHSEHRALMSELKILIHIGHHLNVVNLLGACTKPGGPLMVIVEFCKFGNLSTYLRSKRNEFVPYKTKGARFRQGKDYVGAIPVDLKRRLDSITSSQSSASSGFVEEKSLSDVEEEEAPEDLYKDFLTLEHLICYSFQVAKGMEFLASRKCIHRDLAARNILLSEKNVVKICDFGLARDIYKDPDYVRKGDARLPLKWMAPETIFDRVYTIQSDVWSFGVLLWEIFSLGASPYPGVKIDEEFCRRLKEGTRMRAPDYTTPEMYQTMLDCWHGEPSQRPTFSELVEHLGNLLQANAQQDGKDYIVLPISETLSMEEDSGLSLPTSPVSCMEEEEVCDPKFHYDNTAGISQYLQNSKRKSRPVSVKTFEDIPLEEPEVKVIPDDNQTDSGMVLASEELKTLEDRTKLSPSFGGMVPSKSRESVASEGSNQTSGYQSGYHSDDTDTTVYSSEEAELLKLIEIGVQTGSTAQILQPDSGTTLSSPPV
# VEGFR-2 [6] = biological target: T1, VEGFR-2; assay: VEGFR-2 Western blot in HCT116; format: cell-based; details: for VEGFR2 HCT116 % Inhibition: Western blot at MTT-IC50; for VEGFR2 HCT116 RQ (relative quantification): Western blot at MTT-IC50, control RQ 3.817
# EGFR [7] = biological target: T2, EGFR (Homo sapiens, UniProt P00533); assay: EGFR Western blot in MCF7; format: cell-based; details: for EGFR MCF7 % Inhibition: Western blot at MTT-IC50; for EGFR MCF7 RQ (relative quantification): Western blot at MTT-IC50, control RQ 4.226
# T2 sequence (P00533 25-1210): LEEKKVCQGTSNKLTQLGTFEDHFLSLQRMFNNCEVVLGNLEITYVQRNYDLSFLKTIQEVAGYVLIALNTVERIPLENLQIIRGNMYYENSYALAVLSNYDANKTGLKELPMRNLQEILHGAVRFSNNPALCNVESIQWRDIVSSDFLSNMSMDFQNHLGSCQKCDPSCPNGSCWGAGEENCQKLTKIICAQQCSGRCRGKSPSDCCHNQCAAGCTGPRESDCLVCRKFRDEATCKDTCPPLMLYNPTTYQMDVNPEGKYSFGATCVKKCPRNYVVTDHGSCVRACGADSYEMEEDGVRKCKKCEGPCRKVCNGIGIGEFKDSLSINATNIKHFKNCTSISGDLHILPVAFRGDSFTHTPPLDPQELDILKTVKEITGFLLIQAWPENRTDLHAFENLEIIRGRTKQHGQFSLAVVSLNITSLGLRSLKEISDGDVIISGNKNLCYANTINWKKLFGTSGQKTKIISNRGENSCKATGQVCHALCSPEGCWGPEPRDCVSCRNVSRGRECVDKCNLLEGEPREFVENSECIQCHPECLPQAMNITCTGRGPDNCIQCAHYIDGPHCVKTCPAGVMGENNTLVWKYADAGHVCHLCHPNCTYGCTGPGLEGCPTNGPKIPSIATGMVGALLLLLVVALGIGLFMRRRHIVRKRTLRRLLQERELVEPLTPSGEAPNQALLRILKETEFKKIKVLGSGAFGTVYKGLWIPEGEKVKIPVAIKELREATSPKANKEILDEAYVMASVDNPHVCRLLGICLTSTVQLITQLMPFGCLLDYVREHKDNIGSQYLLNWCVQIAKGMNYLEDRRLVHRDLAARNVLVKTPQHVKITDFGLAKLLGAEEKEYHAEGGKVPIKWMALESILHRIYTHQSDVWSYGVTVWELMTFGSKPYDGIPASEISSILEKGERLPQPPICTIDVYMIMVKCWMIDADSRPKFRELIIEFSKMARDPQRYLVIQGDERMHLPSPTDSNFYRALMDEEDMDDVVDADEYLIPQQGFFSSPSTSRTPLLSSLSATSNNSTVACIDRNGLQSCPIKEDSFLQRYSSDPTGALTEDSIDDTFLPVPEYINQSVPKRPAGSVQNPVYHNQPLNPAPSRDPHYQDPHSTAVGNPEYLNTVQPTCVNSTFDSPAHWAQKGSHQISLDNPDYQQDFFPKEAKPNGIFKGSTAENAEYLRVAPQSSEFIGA
# EGFR [8] = biological target: T2, EGFR; assay: EGFR Western blot in HCT116; format: cell-based; details: for EGFR HCT116 % Inhibition: Western blot at MTT-IC50; for EGFR HCT116 RQ (relative quantification): Western blot at MTT-IC50, control RQ 4.0382
# COX-1 = biological target: T3, COX-1 (Ovis aries, UniProt P05979); assay: COX-1 inhibitor screening kit; format: biochemical
# T3 sequence (P05979 25-600): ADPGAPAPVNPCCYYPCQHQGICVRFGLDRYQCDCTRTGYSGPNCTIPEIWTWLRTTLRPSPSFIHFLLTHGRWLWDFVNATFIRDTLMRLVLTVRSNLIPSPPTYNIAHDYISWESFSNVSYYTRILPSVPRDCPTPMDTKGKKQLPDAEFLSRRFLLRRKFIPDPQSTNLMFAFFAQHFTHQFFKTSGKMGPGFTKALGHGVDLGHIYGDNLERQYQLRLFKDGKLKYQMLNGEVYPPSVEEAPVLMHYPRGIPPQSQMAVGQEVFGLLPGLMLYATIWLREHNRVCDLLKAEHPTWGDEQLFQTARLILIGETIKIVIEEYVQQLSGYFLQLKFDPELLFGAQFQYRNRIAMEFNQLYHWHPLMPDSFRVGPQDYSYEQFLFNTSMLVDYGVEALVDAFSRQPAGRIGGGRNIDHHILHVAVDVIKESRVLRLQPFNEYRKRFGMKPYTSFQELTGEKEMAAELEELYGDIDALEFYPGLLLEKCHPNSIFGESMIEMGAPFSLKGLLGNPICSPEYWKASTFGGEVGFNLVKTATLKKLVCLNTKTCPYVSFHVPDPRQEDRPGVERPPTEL
# COX-2 = biological target: T4, COX-2 (Homo sapiens, UniProt P35354); assay: COX-2 inhibitor screening kit; format: biochemical
# T4 sequence (P35354 18-604): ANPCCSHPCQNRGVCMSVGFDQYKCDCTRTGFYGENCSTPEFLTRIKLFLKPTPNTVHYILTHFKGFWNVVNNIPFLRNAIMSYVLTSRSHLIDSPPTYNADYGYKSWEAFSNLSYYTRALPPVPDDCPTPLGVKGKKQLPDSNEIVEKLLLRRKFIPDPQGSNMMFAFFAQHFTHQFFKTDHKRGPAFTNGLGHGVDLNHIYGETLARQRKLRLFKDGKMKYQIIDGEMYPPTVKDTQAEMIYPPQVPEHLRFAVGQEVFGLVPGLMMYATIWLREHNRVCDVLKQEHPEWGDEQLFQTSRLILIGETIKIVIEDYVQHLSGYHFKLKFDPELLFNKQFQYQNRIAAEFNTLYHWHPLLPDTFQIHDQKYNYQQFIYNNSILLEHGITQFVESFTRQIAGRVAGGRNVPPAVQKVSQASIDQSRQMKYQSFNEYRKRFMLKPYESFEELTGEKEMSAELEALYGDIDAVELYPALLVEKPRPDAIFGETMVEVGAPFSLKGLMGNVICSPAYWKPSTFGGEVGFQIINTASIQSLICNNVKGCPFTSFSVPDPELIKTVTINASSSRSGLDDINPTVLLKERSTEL
# [9] = test system: SARS-CoV-2 (hCoV-19/Egypt/NRC-03/2020); details: SARS-CoV-2 / VERO-E6
SMILES,IC50 [1],"SI (selectivity index), A431 [1]",IC50 [2],"SI (selectivity index), MCF7 [2]",IC50 [3],"SI (selectivity index), HCT116 [3]",IC50 [4],VEGFR2 MCF7 % Inhibition (VEGFR-2 [5]),VEGFR2 MCF7 RQ (relative quantification) (VEGFR-2 [5]),VEGFR2 HCT116 % Inhibition (VEGFR-2 [6]),VEGFR2 HCT116 RQ (relative quantification) (VEGFR-2 [6]),EGFR MCF7 % Inhibition (EGFR [7]),EGFR MCF7 RQ (relative quantification) (EGFR [7]),EGFR HCT116 % Inhibition (EGFR [8]),EGFR HCT116 RQ (relative quantification) (EGFR [8]),IC50 (COX-1),IC50 (COX-2),SI = IC50(COX-1)/IC50(COX-2) (COX-2),SI = CC50/IC50 [9]
"CC(=O)Oc1ccccc1C(=O)N1C/C(=C\c2cccs2)C(=O)/C(=C/c2cccs2)C1 [Compound 5i, 2-[(3E,5E)-4-Oxo-3,5-bis(thiophen-2-ylmethylene)piperidine-1-carbonyl]phenyl acetate]",2150 ± 150 nM,8.8,5580 ± 520 nM,3.41,9260 ± 610 nM,2.06,19000 ± 990 nM,46.3%,2.000,39.8%,2.297,63.6%,1.540,61.3%,1.564,455 nM,772 nM,0.589,125.6
"CC(=O)Oc1ccc(Cl)cc1C(=O)N1C/C(=C\c2ccc(Br)cc2)C(=O)/C(=C/c2ccc(Br)cc2)C1 [Compound 5l, 2-[3,5-Bis((E)-4-bromobenzylidene)-4-oxopiperidine-1-carbonyl]-4-chlorophenyl acetate]",667 ± 70 nM,10.8,4150 ± 370 nM,1.74,1150 ± 130 nM,6.27,7230 ± 490 nM,70.5%,1.1,76.4%,0.9,66.9%,1.4,66.9%,1.336,590 nM,1010 nM,0.582,11.1
"CCN(CCO)CCCC(C)Nc1ccnc2cc(Cl)ccc12 (stereo not shown) [Hydroxychloroquine, reference compound]",,,,,,,,,,,,,,,,,,,9.7
"CC(=O)Oc1ccc(Cl)cc1C(=O)N1C/C(=C\c2ccc(Cl)cc2)C(=O)/C(=C/c2ccc(Cl)cc2)C1 [Compound 5k, 2-[3,5-Bis((E)-4-chlorobenzylidene)-4-oxopiperidine-1-carbonyl]-4-chlorophenyl acetate]",417 ± 30 nM,18.6,4070 ± 330 nM,1.91,1970 ± 170 nM,3.94,7770 ± 560 nM,59.7%,1.5,68.6%,1.2,69.0%,1.31,63.4%,1.479,391 nM,676 nM,0.578,10.3
"COc1cc(/C=C2\CN(C(=O)c3ccccc3OC(C)=O)C/C(=C\c3cc(OC)c(OC)c(OC)c3)C2=O)cc(OC)c1OC [Compound 5h, 2-[4-Oxo-3,5-bis((E)-3,4,5-trimethoxybenzylidene)piperidine-1-carbonyl]phenyl acetate]",472 ± 20 nM,18.3,3990 ± 360 nM,2.16,1330 ± 90 nM,6.47,8620 ± 720 nM,45.4%,2.032,37.2%,2.398,58.9%,1.737,57.9%,1.698,147 nM,438 nM,0.336,35.0
"O=c1[nH]cc(F)c(=O)[nH]1 [Compound 5-FU, 5-fluorouracil, reference compound]",,,,,,,,67.2%,,75.4%,,85.8%,,81.2%,,,,,
"COc1ccc(/C=C2\CN(C(=O)c3ccccc3OC(C)=O)C/C(=C\c3ccc(OC)c(OC)c3)C2=O)cc1OC [Compound 5g, 2-[3,5-Bis((E)-3,4-dimethoxybenzylidene)-4-oxopiperidine-1-carbonyl]phenyl acetate]",973 ± 70 nM,10.6,4970 ± 420 nM,2.08,2390 ± 210 nM,4.32,10300 ± 1100 nM,37.6%,2.324,37.3%,2.393,61.2%,1.638,61.5%,1.554,262 nM,2180 nM,0.120,57.5
"COc1ccc(/C=C2\CN(C(=O)c3ccccc3OC(C)=O)C/C(=C\c3ccc(OC)cc3)C2=O)cc1 [Compound 5f, 2-[3,5-Bis((E)-4-methoxybenzylidene)-4-oxopiperidine-1-carbonyl]phenyl acetate]",6040 ± 620 nM,1.6,5380 ± 510 nM,1.84,6080 ± 490 nM,1.63,9890 ± 660 nM,58.1%,1.56,64.1%,1.37,76.3%,1,62.5%,1.516,147 nM,315 nM,0.467,1.2
"CC(=O)Oc1ccc(Cl)cc1C(=O)N1C/C(=C\c2ccccc2)C(=O)/C(=C/c2ccccc2)C1 [Compound 5j, 4-Chloro-2-[3,5-di((E)-benzylidene)-4-oxopiperidine-1-carbonyl]phenyl acetate]",2510 ± 180 nM,3.7,4500 ± 390 nM,2.06,2620 ± 190 nM,3.53,9260 ± 750 nM,49.0%,1.9,79.0%,0.8,65.7%,1.45,68.5%,1.273,142 nM,1190 nM,0.120,5.7
"CCN(CC)CCCC(C)Nc1ccnc2cc(Cl)ccc12 (stereo not shown) [Chloroquine, reference compound]",,,,,,,,,,,,,,,,,,,15.1
